Results on 43 compounds are retold here after patent publication US8685977B2, “Chemical compounds” (Pfizer Limited, priority 2010, dated 2014).

For this test, the target named is T1, Nav1.7 (or SCN9A) channel (Homo sapiens, UniProt Q15858).
T1 construct: expressed in transfected cells
T1 sequence (Q15858 whole entry): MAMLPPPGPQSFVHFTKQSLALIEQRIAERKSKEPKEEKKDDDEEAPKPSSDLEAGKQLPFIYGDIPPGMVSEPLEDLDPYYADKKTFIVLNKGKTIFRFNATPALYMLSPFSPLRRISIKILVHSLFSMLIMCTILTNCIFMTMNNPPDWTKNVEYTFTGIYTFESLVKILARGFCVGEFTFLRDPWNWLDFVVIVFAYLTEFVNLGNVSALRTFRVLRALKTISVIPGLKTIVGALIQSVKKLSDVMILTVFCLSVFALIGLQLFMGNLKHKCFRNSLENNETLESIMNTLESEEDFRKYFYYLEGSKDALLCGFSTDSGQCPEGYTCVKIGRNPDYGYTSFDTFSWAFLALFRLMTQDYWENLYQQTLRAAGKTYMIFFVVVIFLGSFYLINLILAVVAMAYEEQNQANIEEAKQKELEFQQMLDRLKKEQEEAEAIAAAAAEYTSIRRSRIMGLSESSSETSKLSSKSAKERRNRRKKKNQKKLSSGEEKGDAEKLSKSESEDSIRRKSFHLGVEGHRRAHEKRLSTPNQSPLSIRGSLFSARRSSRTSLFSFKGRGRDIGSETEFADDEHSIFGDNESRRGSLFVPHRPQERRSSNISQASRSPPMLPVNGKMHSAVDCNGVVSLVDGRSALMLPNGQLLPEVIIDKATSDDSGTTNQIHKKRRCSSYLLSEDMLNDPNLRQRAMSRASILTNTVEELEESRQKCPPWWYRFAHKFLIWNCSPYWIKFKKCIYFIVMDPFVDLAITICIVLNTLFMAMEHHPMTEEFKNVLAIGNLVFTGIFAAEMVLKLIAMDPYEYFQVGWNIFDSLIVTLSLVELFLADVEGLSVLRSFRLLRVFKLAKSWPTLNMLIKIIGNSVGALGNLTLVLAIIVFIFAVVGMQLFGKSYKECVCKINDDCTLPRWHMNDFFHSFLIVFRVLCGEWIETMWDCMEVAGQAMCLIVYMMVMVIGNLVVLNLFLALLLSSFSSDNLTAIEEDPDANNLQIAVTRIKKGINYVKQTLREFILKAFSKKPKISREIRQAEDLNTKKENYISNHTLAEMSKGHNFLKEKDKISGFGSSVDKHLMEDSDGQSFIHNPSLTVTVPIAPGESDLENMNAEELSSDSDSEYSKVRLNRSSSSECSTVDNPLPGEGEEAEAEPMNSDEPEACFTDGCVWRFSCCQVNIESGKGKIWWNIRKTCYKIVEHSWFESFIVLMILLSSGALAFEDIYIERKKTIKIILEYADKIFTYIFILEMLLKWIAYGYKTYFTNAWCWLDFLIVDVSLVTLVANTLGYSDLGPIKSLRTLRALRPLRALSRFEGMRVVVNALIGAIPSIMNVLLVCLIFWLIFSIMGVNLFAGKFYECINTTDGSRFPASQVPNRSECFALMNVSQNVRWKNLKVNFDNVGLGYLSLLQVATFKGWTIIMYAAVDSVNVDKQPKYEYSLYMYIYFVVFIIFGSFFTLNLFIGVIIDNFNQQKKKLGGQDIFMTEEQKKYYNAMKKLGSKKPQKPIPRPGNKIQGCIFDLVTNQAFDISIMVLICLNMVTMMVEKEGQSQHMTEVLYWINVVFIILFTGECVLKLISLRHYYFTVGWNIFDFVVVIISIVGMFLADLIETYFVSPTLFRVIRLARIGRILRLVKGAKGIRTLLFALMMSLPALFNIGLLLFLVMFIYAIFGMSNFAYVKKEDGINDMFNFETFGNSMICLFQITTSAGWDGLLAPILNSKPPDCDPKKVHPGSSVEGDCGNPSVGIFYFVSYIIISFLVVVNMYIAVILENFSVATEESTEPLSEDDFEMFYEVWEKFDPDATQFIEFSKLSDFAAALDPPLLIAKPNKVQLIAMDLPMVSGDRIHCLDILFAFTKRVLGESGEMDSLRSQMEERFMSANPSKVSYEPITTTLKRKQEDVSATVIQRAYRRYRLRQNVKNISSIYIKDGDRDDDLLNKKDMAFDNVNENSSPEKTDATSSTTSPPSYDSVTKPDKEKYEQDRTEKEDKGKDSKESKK
Put plainly: Nav1.7 PatchXpress 7000 automated electrophysiology assay (HEK cells stably expressing hSCN9A). The following applies: voltage-clamped at V1/2 of inactivation, read-out: Nav1.7 EIC50. Type of test: cell-based. The method, boiled down: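 Automated whole-cell clamp (PatchXpress) of HEK cells stably expressing hSCN9A, at 22-24 °C, in extracellular buffer at pH 7.4. Cells were held at the measured V1/2 of inactivation, then stepped to 0 mV for 20 ms. Single-concentration % inhibition gave EIC50 = concentration × (100 − %inhibition)/%inhibition, excluding <20% or >80%.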
Turning to `Cc1cc(Cl)cc(Oc2cc(F)c(C(=O)NS(C)(=O)=O)cc2F)c1` [Example 155, 4-(3-chloro-5-methylphenoxy)-2,5-difluoro-N-(methylsulfonyl)benzamide], the IC50 is 5.4 µM.
Turning to `CS(=O)(=O)NC(=O)c1ccc(Oc2ccccc2C(F)(F)F)c(Cl)c1` [Example 278, 3-chloro-N-(methylsulfonyl)-4-[2-(trifluoromethyl)phenoxy]benzamide], the IC50 came to 6.6 µM.
The figure for `Cc1ccccc1Oc1ccc(C(=O)NS(C)(=O)=O)cc1Cl` [Example 256, 3-chloro-4-(2-methylphenoxy)-N-(methylsulfonyl)benzamide] is 2.8 µM; for `CS(=O)(=O)NC(=O)c1cc(F)c(Oc2ccc(F)cc2C#N)cc1F` [Example 130, 4-(2-cyano-4-fluorophenoxy)-2,5-difluoro-N-(methylsulfonyl)benzamide] it is > 3 µM.
Regarding `CS(=O)(=O)NC(=O)c1cc(F)c(Oc2ccc(OC(F)(F)F)c(Cl)c2)cc1F` [Example 55, 4-(3-chloro-4-(trifluoromethoxy)phenoxy)-2,5-difluoro-N-(methylsulfonyl)benzamide], the IC50 amounted to 0.34 µM.
With `COc1ccc(Cl)c(Oc2ccc(C(=O)NS(C)(=O)=O)cc2)c1` [Example 194, 4-(2-chloro-5-methoxyphenoxy)-N-(methylsulfonyl)benzamide] the figure was > 10 µM; with `CS(=O)(=O)NC(=O)c1ccc(Oc2ccc(Cl)c(C(F)(F)F)c2)c(C#N)c1` [Example 62, 4-[4-chloro-3-(trifluoromethyl)phenoxy]-3-cyano-N-(methylsulfonyl)benzamide], 0.89 µM; with `COc1cc(Oc2ccc(Cl)c(C(F)(F)F)c2)c(F)cc1C(=O)NS(C)(=O)=O` [Example 60, 4-[4-chloro-3-(trifluoromethyl)phenoxy]-5-fluoro-2-methoxy-N-(methylsulfonyl)benzamide], 33 µM.
`CS(=O)(=O)NC(=O)c1cc(F)c(Oc2ccc(Cl)c(OC(F)F)c2)cc1F` [Example 49, 4-[4-chloro-3-(difluoromethoxy)phenoxy]-2,5-difluoro-N-(methylsulfonyl)benzamide]: the IC50 came out at 0.52 µM.
The figure for `CS(=O)(=O)NC(=O)c1cc(F)c(Oc2cccc(C(F)(F)F)c2)cc1F` [Example 138, 2,5-difluoro-N-(methylsulfonyl)-4-[3-(trifluoromethyl)phenoxy]benzamide] is 6.6 µM; for `CS(=O)(=O)NC(=O)c1ccc(Oc2ccc(Cl)c(Cl)c2)c(Cl)c1` [Example 82, 3-chloro-4-(3,4-dichlorophenoxy)-N-(methylsulfonyl)benzamide] it is 0.14 µM; for `COc1c(C(=O)NS(C)(=O)=O)ccc(Oc2ccc(Cl)c(C(F)(F)F)c2)c1F` [Example 78, 4-(4-chloro-3-(trifluoromethyl)phenoxy)-3-fluoro-2-methoxy-N-(methylsulfonyl)benzamide] it is 4.2 µM.
With `CCOc1ccccc1Oc1cc(F)c(C(=O)NS(C)(=O)=O)cc1Cl` [Example 288, 5-chloro-4-(2-ethoxyphenoxy)-2-fluoro-N-(methylsulfonyl)benzamide] the figure was 2 µM; with `COc1cc(Oc2ccc(F)c(Cl)c2)ccc1C(=O)NS(C)(=O)=O` [Example 233, 4-(3-chloro-4-fluorophenoxy)-2-methoxy-N-(methylsulfonyl)benzamide], 8.2 µM; with `CS(=O)(=O)NC(=O)c1ccc(Oc2cccc(F)c2)c(Cl)c1` [Example 262, 3-chloro-4-(3-fluorophenoxy)-N-(methylsulfonyl)benzamide], 1.1 µM.
The figure for `COc1ccc(Cl)cc1Oc1cc(F)c(C(=O)NS(C)(=O)=O)cc1Cl` [Example 54, 5-chloro-4-(5-chloro-2-methoxyphenoxy)-2-fluoro-N-(methylsulfonyl)benzamide] is 2.3 µM; for `CS(=O)(=O)NC(=O)c1ccc(Oc2ccc(Cl)c(C(F)(F)F)c2)cc1` [Example 15, 4-[4-chloro-3-(trifluoromethyl)phenoxy]-N-(methylsulfonyl)benzamide] it is 0.93 µM; for `CS(=O)(=O)NC(=O)c1ccc(Oc2ccc(C#N)c(C#N)c2)cc1` [Example 25, 4-(3,4-dicyanophenoxy)-N-(methylsulfonyl)benzamide] it is > 10 µM.
As to `CS(=O)(=O)NC(=O)c1cc(F)c(Oc2ccc(Cl)cc2)cc1F` [Example 129, 4-(4-chlorophenoxy)-2,5-difluoro-N-(methylsulfonyl)benzamide], the IC50 was 1.3 µM.
Take `CS(=O)(=O)NC(=O)c1ccc(Oc2ccc(F)cc2)cc1` [Example 309, 4-(4-fluorophenoxy)-N-(methylsulfonyl)benzamide]: the IC50 was found to be 18 µM.
With `Cc1cc(C(=O)NS(C)(=O)=O)c(F)cc1Oc1ccc(Cl)c(C(F)(F)F)c1` [Example 8, 4-[4-chloro-3-(trifluoromethyl)phenoxy]-2-fluoro-5-methyl-N-(methylsulfonyl)benzamide] the figure was 0.035 µM.
With `CS(=O)(=O)NC(=O)c1ccc(Oc2ccc(Cl)c(Cl)c2)cc1` [Example 182, 4-(3,4-dichlorophenoxy)-N-(methylsulfonyl)benzamide] the figure was 1.4 µM.
With `CS(=O)(=O)NC(=O)c1ccc(Oc2ccc(OC(F)(F)F)cc2)cc1` [Example 168, N-(methylsulfonyl)-4-[4-(trifluoromethoxy)phenoxy]benzamide] the figure was 1.6 µM.
As for `COc1ccc(C#N)cc1Oc1cc(F)c(C(=O)NS(C)(=O)=O)cc1F` [Example 88, 4-(5-cyano-2-methoxyphenoxy)-2,5-difluoro-N-(methylsulfonyl)benzamide], the IC50 was > 3 µM.
With `COc1ccc(Cl)c(Oc2cc(F)c(C(=O)NS(C)(=O)=O)cc2F)c1` [Example 109, 4-(2-chloro-5-methoxyphenoxy)-2,5-difluoro-N-(methylsulfonyl)benzamide] the figure was > 1 µM; with `CS(=O)(=O)NC(=O)c1cc(F)c(Oc2ccccc2F)cc1F` [Example 107, 2,5-difluoro-4-(2-fluorophenoxy)-N-(methylsulfonyl)benzamide], 9.3 µM; with `CS(=O)(=O)NC(=O)c1ccc(Oc2ccc(Cl)c(Cl)c2)cc1F` [Example 28, 4-(3,4-dichlorophenoxy)-2-fluoro-N-(methylsulfonyl)benzamide], 0.86 µM.
With `CS(=O)(=O)NC(=O)c1cc(Cl)c(Oc2ccc(OC(F)F)c(Cl)c2)cc1F` [Example 51, 5-chloro-4-[3-chloro-4-(difluoromethoxy)phenoxy]-2-fluoro-N-(methylsulfonyl)benzamide] the figure was 0.26 µM; with `CS(=O)(=O)NC(=O)c1cc(F)c(Oc2cccc(Cl)c2)cc1F` [Example 156, 4-(3-chlorophenoxy)-2,5-difluoro-N-(methylsulfonyl)benzamide], > 3 µM; with `CS(=O)(=O)NC(=O)c1cc(Cl)c(Oc2ccc(Cl)c(C(F)(F)F)c2)cc1F` [Example 16, 5-chloro-4-[4-chloro-3-(trifluoromethyl)phenoxy]-2-fluoro-N-(methylsulfonyl)benzamide], 0.04 µM.
On to `CS(=O)(=O)NC(=O)c1ccc(Oc2ccc(Cl)c(F)c2)cc1` [Example 220, 4-(4-chloro-3-fluorophenoxy)-N-(methylsulfonyl)benzamide], for which the IC50 came out at 1.8 µM.
With `CS(=O)(=O)NC(=O)c1ccc(Oc2ccccc2)c(Cl)c1` [Example 252, 3-chloro-N-(methylsulfonyl)-4-phenoxybenzamide] the figure was 1.2 µM; with `COc1ccc(Cl)cc1Oc1cc(F)c(C(=O)NS(C)(=O)=O)cc1F` [Example 67, 4-(5-chloro-2-methoxyphenoxy)-2,5-difluoro-N-(methylsulfonyl)benzamide], 5 µM.
Consider `CS(=O)(=O)NC(=O)c1ccc(Oc2ccc(Cl)cc2)cc1` [Example 24, 4-(4-chlorophenoxy)-N-(methylsulfonyl)benzamide], for which the IC50 was determined as 5.7 µM.
Take `CS(=O)(=O)NC(=O)c1ccc(Oc2cccc(-c3ccccc3)c2)c(C#N)c1` [Example 272, 4-(biphenyl-3-yloxy)-3-cyano-N-(methylsulfonyl)benzamide]: the IC50 came out at 0.71 µM.
The figure for `Cc1cccc(Oc2ccc(C(=O)NS(C)(=O)=O)cc2Cl)c1` [Example 250, 3-chloro-4-(3-methylphenoxy)-N-(methylsulfonyl)benzamide] is 1.4 µM.
With `CS(=O)(=O)NC(=O)c1cc(Cl)c(Oc2ccc(Cl)cc2OC(F)F)cc1F` [Example 11, 5-chloro-4-[4-chloro-2-(difluoromethoxy)phenoxy]-2-fluoro-N-(methylsulfonyl)benzamide] the figure was 0.43 µM.
In the case of `CC(C)c1cccc(Oc2cc(F)c(C(=O)NS(C)(=O)=O)cc2F)c1` [Example 158, 2,5-difluoro-4-(3-isopropylphenoxy)-N-(methylsulfonyl)benzamide], the IC50 was determined as 0.84 µM.
`CS(=O)(=O)NC(=O)c1cc(F)c(Oc2ccc(Cl)cc2OC(F)(F)F)cc1F` [Example 73, 4-[4-chloro-2-(trifluoromethoxy)phenoxy]-2,5-difluoro-N-(methylsulfonyl)benzamide]: the IC50 worked out at 0.71 µM.
Take `Cc1ccc(Cl)cc1Oc1cc(F)c(C(=O)NS(C)(=O)=O)cc1F` [Example 133, 4-(5-chloro-2-methylphenoxy)-2,5-difluoro-N-(methylsulfonyl)benzamide]: the IC50 was > 3 µM.
On to `COc1cc(Oc2ccc(Cl)c(C)c2)ccc1C(=O)NS(C)(=O)=O` [Example 231, 4-(4-chloro-3-methylphenoxy)-2-methoxy-N-(methylsulfonyl)benzamide], for which the IC50 came to 3.9 µM.
With `COc1cc(Cl)c(Cl)cc1Oc1cc(F)c(C(=O)NS(C)(=O)=O)cc1F` [Example 70, 4-(4,5-dichloro-2-methoxyphenoxy)-2,5-difluoro-N-(methylsulfonyl)benzamide], the IC50 was determined as 2.8 µM.
Regarding `CS(=O)(=O)NC(=O)c1cc(F)c(Oc2c(F)cccc2F)cc1F` [Example 96, 4-(2,6-difluorophenoxy)-2,5-difluoro-N-(methylsulfonyl)benzamide], the IC50 is > 3 µM.
